Laboratory results taken from US20210379146A1, “METHOD TO RESTORE OR IMPROVE COGNITIVE FUNCTIONS” (INSERM (INSTITUT NATIONAL DE LA SANTÉ ET DE LA RECHERCHE …, priority 2018, published 2021).

Legend:
[1] = system: C57BL/6J male mice; experiment: Novel object recognition (NOR); format: in vivo, mouse; conditions: for memory performance in testing phase of NOR: 3 month-old WT mice, single acute hippocampal stereotactic injection 12 hours before training phase
[2] = system: C57BL/6J male mice; experiment: Contextual fear conditioning (CFC); format: in vivo, mouse; conditions: for memory performance in testing phase of CFC: 3 month-old WT mice, single acute hippocampal stereotactic injection 12 hours before training phase
[3] = system: hippocampal autophagy (LC3-II); conditions: 16 month-old mice, 12 hours after hippocampal stereotactic injection, 1 μg/hemisphere, compared with 3 month-old mice
[4] = system: C57BL/6J male mice; conditions: 16 month-old mice, local hippocampal stereotactic injection 1 μg/hemisphere, versus 3 month-old mice
[5] = 16 month-old mice, 14 days of daily intraperitoneal injections, 450 μg
[6] = 16 month-old mice, local hippocampal stereotactic injection 1 μg/hemisphere, versus 3 month-old mice

| Molecule | memory performance in testing phase of NOR [1] | memory performance in testing phase of CFC [2] | age-related memory decline, NOR [1, 5] | age-related memory deficits, NOR [1, 6] | age-related memory decline, CFC [2, 5] | age-related memory deficits, CFC [2, 6] | LC3-II levels (Western blot) [3] | age-related memory deficits, OLM [4] |
| --- | --- | --- | --- | --- | --- | --- | --- | --- |
| Fc1ccc(CNc2ncnc3ccc(F)cc23)cc1 [Spautin-1, reference compound] | significant decrease in memory performance | significant decrease in memory performance | – | – | – | – | – | – |
| CCN(CC)CCCC(C)Nc1ccnc2cc(Cl)ccc12 (centres unmarked) [chloroquine, Chloroquine, reference compound] | significant decrease in memory performance | significant decrease in memory performance | – | – | – | – | – | – |
| CC(=O)N[C@@H](CC(C)C)C(=O)N[C@@H](CC(C)C)C(=O)N[C@H](C=O)CCCNC(=N)N [leupeptin, Leupeptin, reference compound] | significant decrease in memory performance | significant decrease in memory performance | – | – | – | – | – | – |
| YGRKKRRQRRRGGTNVFNATFEIWHDGEFGT [TAT-Beclin 1] | enhanced learning/memory capacities | enhanced learning/memory capacities | counteract normal age-related memory decline | rescue age-related memory deficits | counteract normal age-related memory decline | rescue age-related memory deficits | restored LC3-II levels in old (16 months) to the level of young (3 months) mice | rescue age-related memory deficits |
